Measurements taken from US12539284B2, “Aminoxy acid-based anti-cancer stem cell compounds and methods thereof” (Westlake University, priority 2019, dated 2026).
“Also recorded” adds a separate entry of the source. Where two headings read alike, the source gives them in different places.

Assays:
[1] = test system: Huh 7 cancer stem cells (CD133+); assay: Cell viability (CellTiter-Glo) of sorted Huh 7 CD133+ cells; type: cell-based; conditions: 48 h, different doses
Protocol: (§1) Huh-7 cells were stained with PE-conjugated CD133 antibody (HCC cancer stem cell marker) according to the manufacturer's instructions. Then CD133^+ cells (Huh 7 cancer stem cells) and CD133− cells were sorted by flow cytometry and seeded into 96-well plate with fresh DMEM medium. After 24 h, medium was changed to fresh medium with compound sff-2-112 (“Example 1”) or sff-2-124 (“Example 3”) at different doses. After 48 h, cell viability was analyzed by CellTiter-Glo luminescent agent.

HEY A8 CSCs [2] = assay: In vivo tumor seeding ability of pretreated HEY A8 CSCs; conditions: CSCs pretreated 2 days in vitro, 10^6 cells injected subcutaneously in mice, 25 days
Protocol: In vivo tumor seeding ability of cells after treatment with compound sff-2-112 (“Example 1”) or sff-2-132 (“Example 4”) was evaluated. Taxol was used as a negative control. For this experiment, HEY A8 CSCs were pretreated with sff-2-112 (“Example 1”), sff-2-132 (“Example 4”) or Taxol for 2 days in suspension medium, respectively. Then cells were allowed to proliferate in full medium in the absence of drugs for 10 days. After that, 10^6 cells were injected into mice subcutaneously. Tumor size was measured for 25 days after injection.

HEY A8 CSCs [3] = assay: Immunoblotting of autophagy associated proteins P62 and LC3; type: cell-based, human; conditions: 24 h; CSCs at 10-fold lower concentration than cancer cells
Protocol: HEY A8 cancer cells and CSCs were treated with compound sff-2-112 (“Example 1”) or sff-2-132 (“Example 4”) for 24 h. Then cells were washed twice with PBS buffer and lysed for immuno-staining. The immunostaining methods were as same as it described in Example 10.

Huh 7 CD133- cells = assay: Cell viability (CellTiter-Glo) of sorted Huh 7 CD133- cells; type: cell-based; conditions: 48 h, different doses
Protocol: as §1

HEY A8 CSCs (HEY A8 SP) = assay: Toxicity / cell viability (CellTiter-Glo) on HEY A8 spheres (CSCs); type: cell-based, human; conditions: for rank of toxicity among the 14 molecules on HEY A8 CSCs: 5 μM; for rank of toxicity among the 14 molecules on HEY A8 CSCs / cell viability of HEY A8 CSCs (toxicity): 48 h; for IC50: HEY A8 spheres, 48 h incubation, read-out: IC50 Cancer Stem Cell HeyA8 SP; for cell viability of HEY A8 CSCs (toxicity): compound 5 μM; for selectivity towards ovarian CSCs over ovarian cancer cells and normal cells: from IC50 values, FIG. 4 and Table 1
Protocol: Aminoxy acids were synthesized by the standard peptide coupling procedures. The CSCs are obtained by spheroids culturing under suspension condition. It is confirmed that these spheres indeed contain significant higher population of cells with CD133 antigenic phenotype, which has been reported can represent ovarian CSCs (FIG. 2). After treatment with compounds for 48 h, the cell viability of CSCs was measured by using CELLTITER-GLO® luminescent reagent. Compound sff-3-85 (“Example 2”) were used at the dose of 10 μM, all the other compounds were used at the concentration of 5 μM. All experiments were performed three times and data is presented as mean±SD.
(§2) Cell Cultures Human ovarian carcinoma cell lines HEY A8 and SKOV3 were gifts from Professor Alice Wong's group (The University of Hong Kong). Cells were grown in Dulbecco's Modified Eagle (DMEM) medium supplemented with 10% FBS and 1% penicillin/streptomycin at 37° C. in a humidified atmosphere containing […] CO2. Isolation and culture of spheres were performed in serum-free stem-cell-selective condition as described in literature Ip etl. Oncogene 2014, 5, 9133-9149. Briefly, 1-2 weeks after plating, non-adherent spherical clusters of cells could be observed and were separated from single cells by low speed centrifugation. After 8th to 10th passages, the non-adherent spherical clusters of cells appeared as distinct spheres. Using this selection condition, HEY A8 spheres (HEY A8 SP) or SKOV3 spheres (SKOV3 SP) could be enzymatically dissociated and reformed into spheres within 3 days under stem-cell-selective condition. To allow differentiation, dissociated sphere cells were plated on tissue culture plates in medium (MCDB 105:M199=1:1) supplemented with 10% FBS and 1% PS.
(§3) HEY A8 SP cells (5×10^4) were plated in triplicate in 10 mL serum-free MCDB105 medium in 100-mm Petri dish for 7 days to form spheres. Compound at the final concentration of 5 μM was added. The cells were further incubated at 37° C. for 48 h. After that cells were collected by centrifugation and the medium was removed. Then 100 μL CellTiter-Glo® Luminescent Cell Viability reagent was added into each tube, which was incubated for 10 min with shaking. After that, the reagent was transferred into 96-well plates and cell viability was measured using a microplate reader (SpectraMax 340PC 384, Molecular Devices).
as §3, with “A8 SP cells or SKOV3” for “A8”, “Then drugs” for “Compound”, “different” for “the final”, “were” for “of 5 μM was”, “μL of” for “μL”

SKOV3 CSCs (SKOV3 SP) = assay: Cell viability (CellTiter-Glo) on SKOV3 spheres (CSCs); type: cell-based, human; conditions: read-out: IC50 Cancer Stem Cell SKOV3 SP
Protocol: as §2
HEY A8 SP cells or SKOV3 SP cells (5×10^4) were plated in triplicate in 10 mL serum-free MCDB105 medium in 100-mm Petri dish for 7 days to form spheres. […] After that, the reagent was transferred into 96-well plates and cell viability was measured using a microplate reader (SpectraMax 340PC 384, Molecular Devices).

| Compound | death of Huh 7 CD133+ cells [1] | tumor-seeding ability / tumor size of pretreated cells (HEY A8 CSCs [2]) | LC3-II and p62 levels (autophagy suppression) (HEY A8 CSCs [3]) | death of Huh 7 CD133- cells (Huh 7 CD133- cells) | rank of toxicity among the 14 molecules on HEY A8 CSCs (HEY A8 CSCs (HEY A8 SP)) | IC50 (HEY A8 CSCs (HEY A8 SP)) | cell viability of HEY A8 CSCs (toxicity) (HEY A8 CSCs (HEY A8 SP)) | selectivity towards ovarian CSCs over ovarian cancer cells and normal cells (HEY A8 CSCs (HEY A8 SP)) | IC50 (SKOV3 CSCs (SKOV3 SP); 48 h incubation) | IC50 (HEY A8 CSCs (HEY A8 SP); Homo sapiens) | selectivity to CSCs over cancer cells (HEY A8 CSCs (HEY A8 SP); ovarian CSCs vs adherent cancer cells (and normal cells)) | IC50 (SKOV3 CSCs (SKOV3 SP); Homo sapiens, SK-OV-3, 48 h incubation) |
| --- | --- | --- | --- | --- | --- | --- | --- | --- | --- | --- | --- | --- |
| O=C(NO[C@H](COCc1ccccc1)C(=O)Nc1ccccc1)c1cc(C(F)(F)F)cc(C(F)(F)F)c1 [sff-2-112] | induce the death | significant decrease in tumor-seeding ability; also recorded: significantly decreased tumor size | Increased levels of both LC3-II and p62 in CSCs | induce the death | highest toxicity | 1500 ± 1300 nM | significantly decreased the cell viability | selectively induce the death of ovarian CSCs | 900 ± 900 nM |  |  |  |
| CC(C)(C)OC(=O)[C@@H](COCc1ccccc1)ONC(=O)c1cc(C(F)(F)F)cc(C(F)(F)F)c1 [sff-2-132] |  | significant decrease in tumor-seeding ability; also recorded: significantly decreased tumor size | Increased levels of both LC3-II and p62 in CSCs |  | highest toxicity |  | significantly decreased the cell viability | best selectivity; also recorded: selectively induce the death of ovarian CSCs |  | 1000 ± 900 nM | up to 60 fold | 1000 ± 900 nM |
